Publication PMC10799935, “Discovery of a peripheral 5HT2A antagonist as a clinical candidate for metabolic dysfunction-associated steatohepatitis” (Nature Communications, 2024)
Several values for one entry are separate records, joined by “and”; a condition that tells them apart may be missing. Equal values may be shown once.

Legend:
Assay type in all cases: in vivo, mouse
HFD-fed C57BL/6J mice [1] = assay: DIO mice: liver histology (H&E), NAFLD activity score (steatosis, inflammation, ballooning); set-up: key to Steatosis (NAFLD Activity Score), individual animals / Steatosis score, group mean: steatosis score 0-3 (0 <5% to 3 >66% fat accumulation); details: for Ballooning (NAFLD Activity Score), individual animals / Inflammation (NAFLD Activity Score), individual animals / Steatosis (NAFLD Activity Score), individual animals / Total Activity (Total NAFLD Activity Score), individual animals: DIO C57BL/6J mice, one value per animal; for Hepatocyte ballooning score, Mean Diff. (Vehicle vs. treated): Dunnett's multiple comparisons test
Source text: Epididymal, inguinal, and liver were harvested, fixed in 10% (w/v) neutral buffered formalin solution (Sigma-Aldrich), and embedded in paraffin. Five-micron-thick tissue sections were deparaffinized, rehydrated, and stained with hematoxylin and eosin (H&E)[10]. The total NAFLD activity score (NAS) is a widely used measure of grading for steatosis, lobular inflammation, and ballooning. The total NAS ranges from 0-8 and is the sum of unweighted scores for steatosis (0: <5%, 1: 5 ~ 33%, 2: 33 ~ 66%, 3: >66% fat accumulation in the liver), lobular inflammation (0: no foci inflammation in x200 field, 1: <2 foci inflammation, 2: 2 ~ 4 foci inflammation, 3: >4 foci inflammation), and hepatocellular ballooning (0: none, 1: few ballooning cells, 2: prominent ballooning cells). MASH was diagnosed when NAS was >5, while non-MASH was diagnosed when NAS was <4. According to the MASH CRN scoring system, a certified pathologist determined the NAS[39]. The histological scoring was performed blindly, without knowledge of any other information.

HFD-fed C57BL/6J mice [2] = assay: DIO mice: blood profiling (serum cholesterol, triglyceride); details: PO; for Blood Biochemistry CHO, individual animals / Blood Biochemistry TG, individual animals: DIO C57BL/6J mice, one value per animal; for Blood Biochemistry CHO, individual animals: serum total cholesterol; for Blood Biochemistry TG, individual animals: serum; for Serum TG levels, group mean / Serum total cholesterol levels (CHO), group mean: DIO mice
Experimental: Blood samples were obtained by cardiac puncture, and plasma was isolated. Blood profiling was performed by GC Pharma (Green Cross Corporation). Plasma TG and cholesterol were detected with an in vitro enzymatic colorimetric assay (CHOL2 and TRIGL; Roche, Germany) using a Cobas 8000 clinical analyzer with a c702 module (Roche).

HFD-fed C57BL/6J mice [3] = assay: DIO mice: quantification of hepatic triglyceride; details: PO, liver; for Hepatic TG Levels, TG, individual animals / Hepatic TG Levels, TG per protein, individual animals: DIO C57BL/6J mice, one value per animal; for Hepatic TG Levels, TG, individual animals / Hepatic TG Levels, TG, group mean: not normalised; for Hepatic TG Levels, TG per protein, group mean / Hepatic TG Levels, TG, group mean: DIO mice
Experimental: Liver tissues were homogenized in 5% NP-40 using FastPrep-24. To solubilize fat, the homogenates were heated to 95 °C for 5 min and cooled at 23 °C, and repeated. Triglyceride Reagent (Sigma-Aldrich) or DW was added and incubated at 37 °C for 30 min to hydrolyze TG into glycerol. For the colorimetric assay of hydrolyzed TG levels, samples were incubated with Free Glycerol Reagent (Sigma-Aldrich) at 37 °C for 5 min. Differences in absorbance at 540 nm between hydrolyzed or non-hydrolyzed TG were quantified using a glycerol standard (Sigma-Aldrich). […]

[4] = tested on: lipogenesis-related genes; assay: DIO mice: qRT-PCR of lipogenesis-related genes in liver; details: DIO, PO, fold vs vehicle; for Fasn (Fold), Mean / Htr2a (Fold), Mean / Pparg (Fold), Mean / Srebp1c (Fold), Mean: group mean; for Fasn (Fold) / Htr2a (Fold) / Pparg (Fold) / Srebp1c (Fold): individual mouse
Experimental: Total RNA extractions from harvested tissues were performed using TRIzol according to the manufacturer’s protocol. After TURBO DNase (Invitrogen) treatment, 2 μg of total RNA was used to generate complementary DNA with a High-Capacity cDNA Reverse Transcription Kit (Thermo Fisher Scientific). Quantitative RT-PCR was performed with Fast SYBR Green Master Mix (Thermo Fisher Scientific) and a Viia 7 Real-time PCR System (Thermo Fisher Scientific) according to the manufacturer’s instructions. Gene expression was relatively quantified based on the delta-delta Ct (threshold cycle) method with the beta-actin gene as a reference gene. The sequence of primers can be found in the Supporting Information (Supplementary Table 2).

[5] = DIO mice, PO, 10mpk, mean, 10 mg/kg

`Cc1nc2n(c(=O)c1CCN1CCC(=C3c4ccc(Cl)cc4CCc4cccnc43)CC1)CCCC2O` (racemic) [GM106] was tested, and the “Ballooning (NAFLD Activity Score), individual animals” value (HFD-fed C57BL/6J mice [1]; PO, 5mpk, 5 mg/kg) was 2.00 and 1.00 and 0.00, the “Inflammation (NAFLD Activity Score), individual animals” value (HFD-fed C57BL/6J mice [1]; PO, 5mpk, 5 mg/kg) was 2.00 and 1.00 and the “Steatosis (NAFLD Activity Score), individual animals” value (HFD-fed C57BL/6J mice [1]; PO, 5mpk, 5 mg/kg) was 3.00 and 2.00 and 1.00. The “Total Activity (Total NAFLD Activity Score), individual animals” value (HFD-fed C57BL/6J mice [1]; PO, 5mpk, 5 mg/kg) was 7.00 and 5.00 and 3.00 and 6.00 and 2.00 and 4.00, the “Ballooning (NAFLD Activity Score), individual animals” value (HFD-fed C57BL/6J mice [1]; PO, 10mpk, 10 mg/kg) was 0.00 and 1.00 and 2.00 and the “Inflammation (NAFLD Activity Score), individual animals” value (HFD-fed C57BL/6J mice [1]; PO, 10mpk, 10 mg/kg) was 1.00 and 2.00 and 0.00. For the same compound, the “Steatosis (NAFLD Activity Score), individual animals” value (HFD-fed C57BL/6J mice [1]; PO, 10mpk, 10 mg/kg) was 0.00 and 1.00, the “Total Activity (Total NAFLD Activity Score), individual animals” value (HFD-fed C57BL/6J mice [1]; PO, 10mpk, 10 mg/kg) was 1.00 and 3.00 and 5.00 and 0.00 and the “Hepatocyte ballooning score, Mean Diff. (Vehicle vs. treated)” value (HFD-fed C57BL/6J mice [1]; DIO mice, 5mpk) was 0.2857. For the same compound, the “Hepatocyte ballooning score, Mean Diff. (Vehicle vs. treated)” value (HFD-fed C57BL/6J mice [1]; DIO mice, 10mpk) was 1, the “Steatosis score, group mean” value (HFD-fed C57BL/6J mice [1]; DIO mice, PO, 5mpk, mean, 5 mg/kg) was 2.0 and the “Steatosis score, group mean” value (HFD-fed C57BL/6J mice [1]; DIO mice, PO, 10mpk, mean) was 0.5. The “Hepatocyte ballooning score, group mean” value (HFD-fed C57BL/6J mice [1]; [5]) was 1, the “Lobular inflammation score, group mean” value (HFD-fed C57BL/6J mice [1]; [5]) was 1.0 and the “Blood Biochemistry CHO, individual animals” value (HFD-fed C57BL/6J mice [2]; 5mpk, 5 mg/kg) was 245.45 mg/dL and 237.41 mg/dL and 246.17 mg/dL and 215.59 mg/dL and 143.17 mg/dL and 210.2 mg/dL and 246.37 mg/dL. For the same compound, the “Blood Biochemistry TG, individual animals” value (HFD-fed C57BL/6J mice [2]; 5mpk, 5 mg/kg) was 80.27 mg/dL and 61.12 mg/dL and 86.84 mg/dL and 48.55 mg/dL and 85.94 mg/dL and 70.5 mg/dL and 70.39 mg/dL, the “Blood Biochemistry CHO, individual animals” value (HFD-fed C57BL/6J mice [2]; 10mpk, 10 mg/kg) was 190.51 mg/dL and 195.99 mg/dL and 228.58 mg/dL and 208.99 mg/dL and 197.21 mg/dL and 184.2 mg/dL and the “Blood Biochemistry TG, individual animals” value (HFD-fed C57BL/6J mice [2]; 10mpk, 10 mg/kg) was 45.42 mg/dL and 58.97 mg/dL and 70.76 mg/dL and 76.11 mg/dL and 81.65 mg/dL and 74.22 mg/dL. For the same compound, the “Serum TG levels, group mean” value (HFD-fed C57BL/6J mice [2]; 5mpk) was 71.94 mg/dL, the “Serum total cholesterol levels (CHO), group mean” value (HFD-fed C57BL/6J mice [2]; 5mpk, 5 mg/kg) was 220.62 mg/dL and the “Serum TG levels, group mean” value (HFD-fed C57BL/6J mice [2]; 10mpk) was 67.86 mg/dL. The “Serum total cholesterol levels (CHO), group mean” value (HFD-fed C57BL/6J mice [2]; 10mpk, 10 mg/kg) was 200.91 mg/dL, the “Hepatic TG Levels, TG, individual animals” value (HFD-fed C57BL/6J mice [3]; 5mpk, 5 mg/kg) was 0.07575 mg/mL and 0.09502 mg/mL and 0.09001 mg/mL and 0.07002 mg/mL and 0.1053 mg/mL and 0.1094 mg/mL and 0.1015 mg/mL and the “Hepatic TG Levels, TG per protein, individual animals” value (HFD-fed C57BL/6J mice [3]; 5mpk, 5 mg/kg) was 71.5854 mg/g protein and 74.7025 mg/g protein and 51.6625 mg/g protein and 103.84 mg/g protein and 123.461 mg/g protein and 75.9936 mg/g protein and 58.3099 mg/g protein. The “Hepatic TG Levels, TG, individual animals” value (HFD-fed C57BL/6J mice [3]; 10mpk, 10 mg/kg) was 0.06336 mg/mL and 0.0751 mg/mL and 0.08726 mg/mL and 0.101 mg/mL and 0.08773 mg/mL and 0.06215 mg/mL, the “Hepatic TG Levels, TG per protein, individual animals” value (HFD-fed C57BL/6J mice [3]; 10mpk, 10 mg/kg) was 41.8429 mg/g protein and 54.7941 mg/g protein and 65.6095 mg/g protein and 56.3849 mg/g protein and 74.0866 mg/g protein and 34.3504 mg/g protein and the “Hepatic TG Levels, TG per protein, group mean” value (HFD-fed C57BL/6J mice [3]; 5mpk) was 79.94 mg/g protein. The “Hepatic TG Levels, TG, group mean” value (HFD-fed C57BL/6J mice [3]; 5mpk) was 0.09 mg/mL, the “Hepatic TG Levels, TG per protein, group mean” value (HFD-fed C57BL/6J mice [3]; 10mpk) was 54.51 mg/g protein and the “Hepatic TG Levels, TG, group mean” value (HFD-fed C57BL/6J mice [3]; 10mpk) was 0.08 mg/mL. The “Fasn (Fold), Mean” value ([4]; 5mpk, 7 mice) was 0.745, the “Htr2a (Fold), Mean” value ([4]; 5mpk, 7 mice) was 0.510 and the “Pparg (Fold), Mean” value ([4]; 5mpk, 7 mice) was 0.893. For the same compound, the “Srebp1c (Fold), Mean” value ([4]; 5mpk, 7 mice) was 0.768, the “Fasn (Fold)” value ([4]; 5mpk, 5 mg/kg) was 0.6490 and 1.2211 and 0.8546 and 0.7608 and 0.3082 and 0.7010 and 0.7176 and the “Htr2a (Fold)” value ([4]; 5mpk, 5 mg/kg) was 0.4721 and 0.7255 and 0.4948 and 0.4297 and 0.7599 and 0.2475 and 0.4420. For the same compound, the “Pparg (Fold)” value ([4]; 5mpk, 5 mg/kg) was 0.9158 and 1.2274 and 0.7611 and 0.5677 and 1.3805 and 0.7174 and 0.6847, the “Srebp1c (Fold)” value ([4]; 5mpk, 5 mg/kg) was 0.9242 and 0.7728 and 0.8708 and 0.7607 and 0.6589 and 0.3460 and 1.0400 and the “Fasn (Fold), Mean” value ([4]; 10mpk, 6 mice) was 0.560. For the same compound, the “Htr2a (Fold), Mean” value ([4]; 10mpk, 6 mice) was 0.414, the “Pparg (Fold), Mean” value ([4]; 10mpk, 6 mice) was 1.032 and the “Srebp1c (Fold), Mean” value ([4]; 10mpk, 6 mice) was 0.496. The “Fasn (Fold)” value ([4]; 10mpk, 10 mg/kg) was 0.3894 and 0.5870 and 0.6740 and 0.7101 and 0.3290 and 0.6694, the “Htr2a (Fold)” value ([4]; 10mpk, 10 mg/kg) was 0.4677 and 0.2891 and 0.2762 and 0.4976 and 0.4041 and 0.5480 and the “Pparg (Fold)” value ([4]; 10mpk, 10 mg/kg) was 0.7506 and 1.1267 and 1.0050 and 0.9956 and 1.2727 and 1.0412. For the same compound, the “Srebp1c (Fold)” value ([4]; 10mpk, 10 mg/kg) was 0.4795 and 0.5418 and 0.5388 and 0.5056 and 0.4290 and 0.4815.
